Assays:
[1] = target: T1, norepinephrine transporter (NET) (Homo sapiens, UniProt P23975); assay: inhibition of mIBG internalization in HEK-NET cells, LC-MS/MS quantification; format: cell-based
T1 construct: gene SLC6A2; human NET expressed in transfected HEK293 cells

[2] = substrate: N=C(N)NCc1cccc(I)c1; assay: cells, lysate or membranes

T1 sequence (P23975 whole entry): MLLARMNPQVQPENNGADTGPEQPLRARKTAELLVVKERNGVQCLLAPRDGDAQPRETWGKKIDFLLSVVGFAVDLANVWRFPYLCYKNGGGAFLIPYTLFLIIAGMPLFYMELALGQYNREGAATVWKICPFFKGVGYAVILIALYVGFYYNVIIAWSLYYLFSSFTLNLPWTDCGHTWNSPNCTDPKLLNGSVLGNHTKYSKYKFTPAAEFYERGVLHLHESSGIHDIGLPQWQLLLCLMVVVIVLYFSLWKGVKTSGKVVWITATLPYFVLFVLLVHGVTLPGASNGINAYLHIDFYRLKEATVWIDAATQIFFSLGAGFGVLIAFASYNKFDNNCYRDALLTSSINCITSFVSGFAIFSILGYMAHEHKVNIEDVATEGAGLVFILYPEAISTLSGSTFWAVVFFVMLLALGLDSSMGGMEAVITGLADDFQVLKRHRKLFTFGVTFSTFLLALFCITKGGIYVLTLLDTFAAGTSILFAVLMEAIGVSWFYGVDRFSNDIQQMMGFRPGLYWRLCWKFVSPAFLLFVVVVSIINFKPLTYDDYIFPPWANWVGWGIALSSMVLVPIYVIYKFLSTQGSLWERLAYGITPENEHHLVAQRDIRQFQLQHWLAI

Question: Which IC50 [1] does the source give for `c1ccc(CCCN2CCN(CCOC(c3ccccc3)c3ccccc3)CC2)cc1` [GBR12935] here?
Answer: The IC50 was 3.61 µM.

B1: dopamine transporter (DAT) (Homo sapiens) (protein)
chain: MSKSKCSVGLMSSVVAPAKEPNAVGPKEVELILVKEQNGVQLTSSTLTNPRQSPVEAQDRETWGKKIDFLLSVIGFAVDLANVWRFPYLCYKNGGGAFLVPYLLFMVIAGMPLFYMELALGQFNREGAAGVWKICPILKGVGFTVILISLYVGFFYNVIIAWALHYLFSSFTTELPWIHCNNSWNSPNCSDAHPGDSSGDSSGLNDTFGTTPAAEYFERGVLHLHQSHGIDDLGPPRWQLTACLVLVIVLLYFSLWKGVKTSGKVVWITATMPYVVLTALLLRGVTLPGAIDGIRAYLSVDFYRLCEASVWIDAATQVCFSLGVGFGVLIAFSSYNKFTNNCYRDAIVTTSINSLTSFSSGFVVFSFLGYMAQKHSVPIGDVAKDGPGLIFIIYPEAIATLPLSSAWAVVFFIMLLTLGIDSAMGGMESVITGLIDEFQLLHRHRELFTLFIVLATFLLSLFCVTNGGIYVFTLLDHFAAGTSILFGVLIEAIGVAWFYGVGQFSDDIQQMTGQRPSLYWRLCWKLVSPCFLLFVVVVSIVTFRPPHYGAYIFPDWANALGWVIATSSMAMVPIYAAYKFCSLPGSFREKLAYAIAPEKDRELVDRGEVRQFTLRHWLKV
Question: B1 was tested. Which Km [2] did it give?
Answer: Its Km is 2.807 µM.

Source: paper PMC10485979, “CUDC-907, a dual PI3K/histone deacetylase inhibitor, increases meta-iodobenzylguanidine uptake (^123/131I-mIBG) in vitro and in vivo: a promising candidate for advancing theranostics in neuroendocrine tumors” (Journal of Translational Medicine, 2023)
